The test system of assay [1] is TNFα production in LPS-stimulated human monocytes. In words: Cot Monocyte TNFα Cell Based Assay. To be noted: Homo sapiens, Monocyte, read-out: EC50 TNF. The procedure, abridged: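 TR-FRET read-out of total secreted TNFα, normalized as % control (unstimulated = 0%, LPS-stimulated = 100%). Cells (5,000/well) were exposed to compound 1 h at 37 °C, then to 50 pg/ml LPS for a further 4 h.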

Assay [2] addresses T1, human Cot catalytic domain (30-397 amino acids) (Homo sapiens, UniProt P41279).
T1 construct: Purified recombinant human Cot catalytic domain (30-397 amino acids) was purchased from Cama Biosciences; purchased Cama Biosciences (so in the source)
The experiment in a line: High Throughput Cot Biochemical Assay (KinEASE TR-FRET). The note with it: read-out: IC50 HTRF. The method in brief: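 TR-FRET readout: Eu-labeled phospho-specific antibody binds XL665-tagged STK3 peptide after phosphorylation by Cot (aa 30-397, 5 nM). Conditions: 400 μM ATP, 1 μM peptide, MOPS pH 7.0 buffer with MgOAc, DTT, BSA, NP-40, glycerol; 0.1% DMSO.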

Setting [3] is: TNFα in LPS-stimulated human monocytes.
Setting [4] is: Cot biochemical HTRF (KinEASE TR-FRET) assay.
Where [5] appears, read: Cot KinEASE TR-FRET (HTRF) biochemical assay, 400 μM ATP.
Setting [6] is: LPS-stimulated human monocytes, TNFα TR-FRET.
[7] abbreviates: Cot KinEASE TR-FRET, 400 μM ATP.

Where two headings read alike, the source gives them in different places. Where only a bound is given, the exact number is not on record here.

The source of these data is patent US10316017B2, “COT modulators and methods of use thereof” (Gilead Sciences, Inc., priority 2015, dated 2019).

What is called EC50 is the concentration needed to bring the measured effect to its halfway point. Broadly, the IC50 is the concentration that gives 50% inhibition.

T1 sequence (P41279 30-397): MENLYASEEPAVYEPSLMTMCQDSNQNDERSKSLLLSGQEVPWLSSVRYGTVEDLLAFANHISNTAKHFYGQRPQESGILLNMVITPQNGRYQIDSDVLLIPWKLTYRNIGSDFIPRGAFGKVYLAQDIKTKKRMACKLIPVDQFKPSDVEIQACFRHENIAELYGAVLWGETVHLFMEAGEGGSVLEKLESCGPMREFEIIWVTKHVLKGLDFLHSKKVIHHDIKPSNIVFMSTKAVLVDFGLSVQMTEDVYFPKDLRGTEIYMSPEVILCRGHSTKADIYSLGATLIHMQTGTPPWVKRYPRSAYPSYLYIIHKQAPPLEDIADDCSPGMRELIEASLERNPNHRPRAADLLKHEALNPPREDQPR

For `CC(C)(C)N1CCC(n2cc([C@@H](Nc3cc(Cl)c4ncc(C#N)c(Nc5ccc6c(cnn6Cc6ccccc6)c5)c4c3)c3ccc(Cl)cc3)nn2)CC1` [Example 686, (S)-4-((1-benzyl-1H-indazol-5-yl)amino)-6-(((1-(1-(tert-butyl)piperidin-4-yl)-1H-1,2,3-triazol-4-yl)(4-chlorophenyl)methyl)amino)-8-chloroquinoline-3-carbonitrile], in assay [1] (setting [3]), the EC50 is 5.9 µM. In assay [2] (setting [4]), the IC50 stood at 7.24 µM.
The like results for `N#Cc1cnc2c(Cl)cc(N[C@H](c3c[nH]nn3)c3ccccc3F)cc2c1Nc1cnc(F)c(F)c1` [Example 447, (S)-8-chloro-4-((5,6-difluoropyridin-3-yl)amino)-6-(((2-fluorophenyl) (1H-1,2,3-triazol-4-yl)methyl)amino)quinoline-3-carbonitrile] were, in that order, 1.93 µM and 0.023 µM.
Taken in the same sequence, the figures for `CN(C)C(=O)CN1CCC(n2cc([C@@H](Nc3cc(Cl)c4ncc(C#N)c(Nc5ccc(F)c(Cl)c5)c4c3)c3ccc(F)cc3)nn2)CC1` [Example 824, (S)-2-(4-(4-(((8-chloro-4-((3-chloro-4-fluorophenyl)amino)-3-cyanoquinolin-6-yl)amino)(4-fluorophenyl)methyl)-1H-1,2,3-triazol-1-yl)piperidin-1-yl)-N,N-dimethylacetamide] were 0.45 µM and 0.058 µM.
Turning to `[2H][C@](Nc1cc(Cl)c2ncc(C#N)c(N[C@H]3CCCC[C@@H]3CO)c2c1)(c1ccc(F)cc1)c1cn(C2CC2)nn1` [Example 234, 8-chloro-6-(((S)-(1-cyclopropyl-1H-1,2,3-triazol-4-yl)(4-fluorophenyl)methyl-d)amino)-4-(((1S,2S)-2-(hydroxymethyl)cyclohexyl)amino) quinoline-3-carbonitrile], the EC50 in assay [1] (setting [3]) amounted to 5.63 µM. Besides, the IC50 in assay [2] (setting [5]) was determined as 0.523 µM.
As for `[2H][C@](Nc1cc(Cl)c2ncc(C#N)c(N[C@H](CCC#N)c3ccccc3)c2c1)(c1cccc(C#N)c1)c1cn(C(F)(F)CO)nn1` [Example 51, 8-chloro-4-(((R)-3-cyano-1-phenylpropyl)amino)-6-(((S)-(3-cyanophenyl) (1-(1,1-difluoro-2-hydroxyethyl)-1H-1,2,3-triazol-4-yl)methyl-d)amino) quinoline-3-carbonitrile], the EC50 in assay [1] (setting [3]) was 0.057 µM. For the same molecule, the IC50 in assay [2] (setting [5]) amounted to 0.001 µM.
The like results for `[2H][C@](Nc1cc(Cl)c2ncc(C#N)c(NC3CC(F)(F)C3)c2c1)(c1ccc(F)cc1)c1cn(C2CC2)nn1` [Example 204, (S)-8-chloro-6-(((1-cyclopropyl-1H-1,2,3-triazol-4-yl)(4-fluorophenyl)methyl-d)amino)-4-((3,3-difluorocyclobutyl)amino)quinoline-3-carbonitrile] were, in that order, 1.06 µM and 0.097 µM.
`CC(C)(C)N1CCC(n2cc([C@@H](Nc3cc(Cl)c4ncc(C#N)c(Nc5ccc(Cl)c(Cl)c5)c4c3)c3ccc(Cl)cc3)nn2)CC1` [Example 765, (S)-6-(((1-(1-(tert-butyl)piperidin-4-yl)-1H-1,2,3-triazol-4-yl)(4-chlorophenyl)methyl)amino)-8-chloro-4-((3,4-dichlorophenyl)amino)quino1ine-3-carbonitrile]: in assay [1] (setting [3]), the EC50 was 1.29 µM. Also, the IC50 in assay [2] (setting [4]) was 0.07 µM.
With `Cc1ccccc1[C@H](Nc1cc(Cl)c2ncc(C#N)c(NCC(C)(C)C)c2c1)c1cn(C2(C(F)(F)F)CC2)nn1` [Example 1061, (S)-8-chloro-4-(neopentylamino)-6-((o-tolyl(1-(1-(trifluoromethyl)cyclopropyl)-1H-1,2,3-triazol-4-yl)methyl)amino)quinoline-3-carbonitrile], in assay [1] (setting [6]), the EC50 was found to be 0.62 µM. In addition, in assay [2] (setting [7]), the IC50 was determined as 0.085 µM.
Consider `CC(C)(C)CNc1c(C#N)cnc2c(Cl)cc(N[C@H](c3cn(C4(C(F)(F)F)CC4)nn3)c3cccc(C#N)c3Cl)cc12` [Example 1074, (S)-8-chloro-6-(((2-chloro-3-cyanophenyl)(1-(1-(trifluoromethyl)cyclopropyl)-1H-1,2,3-triazol-4-yl)methyl)amino)-4-(neopentylamino)quinoline-3-carbonitrile], for which the EC50 in assay [1] (setting [6]) amounted to 0.435 µM. The IC50 in assay [2] (setting [7]) is 0.048 µM.
Consider `CC(C)(C)N1CCC(n2cc([C@@H](Nc3cc(Cl)c4ncc(C#N)c(Nc5ccsc5Cl)c4c3)c3ccccc3)nn2)CC1` [Example 611, (S)-6-(((1-(1-(tert-butyl)piperidin-4-yl)-1H-1,2,3-triazol-4-yl)(phenyl)methyl)amino)-8-chloro-4-((2-chlorothiophen-3-yl)amino)quinoline-3-carbonitrile], for which the EC50 in assay [1] (setting [3]) came out at 0.369 µM. For the same molecule, the IC50 in assay [2] (setting [4]) is 0.051 µM.
The like results for `N#Cc1cnc2c(Cl)cc(N[C@@H](c3ccccc3)c3cn([C@@H]4CCNC[C@H]4F)nn3)cc2c1Nc1ccc(F)c(Cl)c1` [Example 744, 8-chloro-4-((3-chloro-4-fluorophenyl)amino)-6-(((S)-(1-((3R,4R)-3-fluoropiperidin-4-yl)-1H-1,2,3-triazol-4-yl)(phenyl)methyl)amino) quinoline-3-carbonitrile] were, in that order, 0.363 µM and 0.013 µM.
Regarding `[2H][C@](Nc1cc(Cl)c2ncc(C#N)c(Nc3cnc(F)c(F)c3)c2c1)(c1ccc(F)cc1)c1cn(Cc2c(F)cccc2F)nn1` [Example 329, (S)-8-chloro-6-(((1-(2,6-difluorobenzyl)-1H-1,2,3-triazol-4-yl)(4-fluorophenyl)methyl-d)amino)-4-((5,6-difluoropyridin-3-yl)amino)quinoline-3-carbonitrile], in assay [1] (setting [3]), the EC50 amounted to 0.808 µM. The IC50 in assay [2] (setting [5]) is 0.032 µM.
Consider `CC(C)(C)N1CCC(n2cc([C@@H](Nc3cc(Cl)c4ncc(C#N)c(NCC5CCOCC5)c4c3)c3ccccc3)nn2)CC1` [Example 601, (S)-6-(((1-(1-(tert-butyl)piperidin-4-yl)-1H-1,2,3-triazol-4-yl)(phenyl)methyl)amino)-8-chloro-4-(((tetrahydro-2H-pyran-4-yl)methyl)amino)quinoline-3-carbonitrile], for which the EC50 in assay [1] (setting [3]) worked out at 2.06 µM. For the same molecule, in assay [2] (setting [4]), the IC50 was determined as 0.064 µM.
With `[2H]C(Nc1cc(C#N)c2ncc(C#N)c(NCC(C)(C)C)c2c1)(c1cccc(C#N)c1)c1cn(C2(C(N)=O)CC2)nn1` (stereo not shown) [Example 969, 1-(4-((3-cyanophenyl)((3,8-dicyano-4-(neopentylamino)quinolin-6-yl)amino)methyl-d)-1H-1,2,3-triazol-1-yl)cyclopropane-1-carboxamide], the EC50 in assay [1] (setting [6]) is at least 1 µM. The IC50 in assay [2] (setting [7]) was determined as 0.001 µM.
Consider `[2H][C@](Nc1cc(C#N)c2ncc(C#N)c(NCC(C)(C)C)c2c1)(c1ccccc1)c1cn(C2CC2)nn1` [Example 84, (S)-6-(((1-cyclopropyl-1H-1,2,3-triazol-4-yl) (phenyl)methyl-d)amino)-4-(neopentylamino) quinoline-3,8-dicarbonitrile], for which, in assay [1] (setting [3]), the EC50 is 0.047 µM. The IC50 in assay [2] (setting [5]) came to 0.002 µM.
Regarding `CC(C)(C)N1CCC(n2cc([C@@H](Nc3cc(Cl)c4ncc(C#N)c(NCc5ccccc5F)c4c3)c3ccccc3)nn2)CC1` [Example 618, (S)-6-(((1-(1-(tert-butyl)piperidin-4-yl)-1H-1,2,3-triazol-4-yl)(phenyl)methyl)amino)-8-chloro-4-((2-fluorobenzyl)amino)quinoline-3-carbonitrile], the EC50 in assay [1] (setting [3]) is 1.7 µM. For the same molecule, in assay [2] (setting [4]), the IC50 was determined as 0.053 µM.
As to `Cc1c(-c2cn[nH]c2)cccc1[C@H](Nc1cc(Cl)c2ncc(C#N)c(NCC(C)(C)C)c2c1)c1cn(C2(C(F)(F)F)CC2)nn1` [Example 1164, (S)-8-chloro-6-(((2-methyl-3-(1H-pyrazol-4-yl)phenyl) (1-(1-(trifluoromethyl)cyclopropyl)-1H-1,2,3-triazol-4-yl)methyl)amino)-4-(neopentylamino) quinoline-3-carbonitrile], the EC50 in assay [1] (setting [6]) was 0.066 µM. Further, the IC50 in assay [2] (setting [7]) turned out to be 0.013 µM.
Regarding `CC(C)(C)CNc1c(C#N)cnc2c(Cl)cc(N[C@@H](c3cccc(-n4cccn4)c3)c3cn(C4CC4)nn3)cc12` [Example 1033, (S)-6-(((3-(1H-pyrazol-1-yl)phenyl)(1-cyclopropyl-1H-1,2,3-triazol-4-yl)methyl)amino)-8-chloro-4-(neopentylamino)quinoline-3-carbonitrile], in assay [1] (setting [6]), the EC50 came to 0.456 µM. Further, the IC50 in assay [2] (setting [7]) is 0.002 µM.
On to `[2H][C@](Nc1cc(Cl)c2ncc(C#N)c(NCC(C)(C)C)c2c1)(c1cn(C(C)(C)C)nn1)c1ccccc1Cl` [Example 109, 6-(((1-(tert-butyl)-1H-1,2,3-triazol-4-yl) (2-chlorophenyl)methyl-d)amino)-8-chloro-4-(neopentylamino) quinoline-3-carbonitrile], for which the EC50 in assay [1] (setting [3]) is 0.21 µM. Further, in assay [2] (setting [5]), the IC50 stood at 0.017 µM.
For `CC(C)(C)N1CCC(n2cc([C@@H](Nc3cc(Cl)c4ncc(C#N)c(Nc5ccc(F)c(Cl)c5)c4c3)c3ccccc3CO)nn2)CC1` [Example 722, (S)-6-(((1-(1-(tert-butyl)piperidin-4-yl)-1H-1,2,3-triazol-4-yl)(2-(hydroxymethyl)phenyl)methyl)amino)-8-chloro-4-((3-chloro-4-fluorophenyl)amino)quinoline-3-carbonitrile], the EC50 in assay [1] (setting [3]) came to 0.076 µM. In assay [2] (setting [4]), the IC50 came to 0.004 µM.
